Read-outs that look alike come from different tables or passages of the source.
What was measured:
[1] = Toxicity of 4α-(N-phenyl)miliusate in mice; type: in vivo, BALB/c nude mice
Text: All animal studies are approved and performed according to Animal Care and Use Guidelines of the Animal Ethics Committee at Hong Kong Baptist University and performed following Animal Care and Use guidelines set by NIH (National Institute of Health, USA). BALB/c nude mice, SPF class, male or female, 7-8 weeks old (average body weight 22 g), are purchased from Charles River Laboratories. Before the experiment, the mice are kept for one week of acclimatization to SPF class laboratory conditions. […] Every other day injections at i.p. sites are scheduled for 21 days. Weights of mice are measured twice a week until the end of the experiment.

[2] = tested on: HIV/VSV-G virions; conditions: read-out: Anti-HIV Activity (EC50)
[3] = tested on: HIV/VSV-G virions; assay: microbe, parasite or virus in culture; conditions: Human immunodeficiency virus 1, A549, in Homo sapiens, 48 h, read-out: Anti-HIV Activity (EC50)
[4] = tested on: HIV/VSV-G virions; assay: in vitro; conditions: human
[5] = tested on: HIV/HA virions (H5N1 HA and NA); conditions: human
[6] = tested on: HIV/HA virions (H5N1 HA and NA); assay: in vitro; conditions: human, Selective Index (CC50/IC50), anti-H5N1
[7] = tested on: HIV/HA virions (H5N1 HA and NA); assay: microbe, parasite or virus in culture; conditions: Human immunodeficiency virus 1, H5N1, A549, in Homo sapiens, 48 h, read-out: Anti-H5N1 Activity (EC50)
[8] = 20 and 40 mg/kg i.p., every other day for 21 days, 10 mice/group

4α-(N-Phenyl)miliusate
Health of mice [1, 8]: all mice remained healthy | Weight loss of mice [1, 8]: no weight loss | Toxicity in mice ([1]; doses of 40 mg/kg): no toxicity | EC50 [2]: 2.7 µM

8′,10′-Dihydroxy-miliusate
EC50 [2]: 14.4 µM

10′-Hydroxy-8′-oxo-miliusate
EC50 [2]: 4.97 µM

CC(=O)O[C@@H]1CCC(=O)C2(CC(=O)O[C@@H]2/C=C(\C)CCC=C(C)C)C1 (some centres unmarked) [3,4-Dihydro-miliusate]
EC50 [3]: 67 µM | selectivity ratio [4]: 1

CO[C@@H]1CC(=O)C2(CC(=O)O[C@@H]2/C=C(\C)CCC=C(C)C)C[C@@H]1O (some centres unmarked) [Miliusane I]
Selective Index (CC50/IC50), anti-H5N1 [5]: 10 | selectivity ratio [6]: 9.5 | EC50 [7]: 0.71 µM

Reference: patent US10323012B2 (priority 2012, dated 2019)
